Structures can show the parent of a compound that is named as a salt.
Experiments:
[1] = Oral bioavailability (blood exposure, DNAUC) in rats; assay type: in vivo, male Sprague-Dawley rats; conditions: for Oral DNAUC rats (Sprague-Dawley): sodium salts, oral gavage, dose ~1-4 mg/kg, 50% PEG-400, 10% ethanol, 40% of 40% (w/v) aqueous Encapsin, blood, LC/MS/MS, 0-1440 min
Experimental: The sodium salt of Compound A was fed to male Sprague-Dawley rats by oral gavage in a formulation with 50% PEG-400, 10% ethanol, 40% of 40% (w/v) aqueous Encapsin in water at a dose of between 1 and 4 mg/kg (16 mL of dose solution per kg). Blood (120 microliters) was sampled at the following time intervals: 0, 20, 40, 60, 120, 180, 240, 360, 480, and 1440 min. The concentration of Compound A was quantified by LC/MS/Ms analysis of an aliquot (25 microliters blood+25 microliters water) of these samples and the overall blood exposure reported as the Dose-Normalised Area Under the Curve (DNAUC) from a concentration versus time plot and expressed in the units microgram hours per milliliter per […] per kilogram (ug.h/mL/mg/kg). The oral exposures of the sodium salt of Compound B and the sodium salt of Compound C were quantified by the same method.

[2] = target: T1, hYAK3 kinase enzyme (Homo sapiens, UniProt O43781); experiment: in vitro hYAK3 kinase enzyme inhibition; assay type: biochemical; conditions: in vitro assays; compared with Compound B and Compound C
T1 sequence (O43781 1-588): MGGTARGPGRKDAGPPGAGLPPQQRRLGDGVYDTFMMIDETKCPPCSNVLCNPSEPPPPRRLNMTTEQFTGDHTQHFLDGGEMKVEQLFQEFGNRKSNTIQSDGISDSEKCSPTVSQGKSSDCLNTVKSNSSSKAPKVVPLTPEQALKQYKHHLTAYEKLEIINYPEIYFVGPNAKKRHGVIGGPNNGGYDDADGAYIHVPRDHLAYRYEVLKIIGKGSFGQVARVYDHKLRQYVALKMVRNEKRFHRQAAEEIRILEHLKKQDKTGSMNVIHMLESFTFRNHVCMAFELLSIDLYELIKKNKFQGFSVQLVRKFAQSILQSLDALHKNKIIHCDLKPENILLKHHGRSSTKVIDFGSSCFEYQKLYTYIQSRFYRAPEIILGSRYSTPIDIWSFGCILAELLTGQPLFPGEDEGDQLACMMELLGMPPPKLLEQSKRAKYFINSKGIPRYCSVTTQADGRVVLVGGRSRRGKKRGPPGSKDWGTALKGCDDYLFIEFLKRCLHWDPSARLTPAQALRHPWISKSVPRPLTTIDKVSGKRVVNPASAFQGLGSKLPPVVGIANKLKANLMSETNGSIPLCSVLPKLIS
Experimental: Compound A is tested for its ability to inhibit the hYAK3 kinase enzyme by known methods such as those described in International Application No. PCT/US2003/037658.

## O=C1N=C(Nc2c(Cl)cc(Cl)cc2Cl)S/C1=C\c1ccc2nccnc2c1.[Na] [Compound A•Na, (5Z)-5-(6-quinoxalinylmethylidene)-2-[(2,4,6-trichlorophenyl)amino]-1,3-thiazol-4(5H)-one sodium salt]
[1]
  Oral DNAUC rats (Sprague-Dawley): 26.11 ug · h/mL/min/kg

## O=C1NC(=Nc2c(Cl)cccc2Cl)S/C1=C\c1ccc2ncccc2c1 [Compound B•Na, 2-(2,6-dichloro-phenylimino)-5-(quinolin-6-ylmethylene)-thiazolidin-4-one sodium salt, reference compound]
[1]
  Oral DNAUC rats (Sprague-Dawley): 0.49 ug · h/mL/min/kg

## O=C1NC(=Nc2c(Cl)cc(Cl)cc2Cl)S/C1=C\c1ccc2nccnc2c1 [Compound A, (5Z)-5-(6-quinoxalinylmethylidene)-2-[(2,4,6-trichlorophenyl)amino]-1,3-thiazol-4(5H)-one]
[2]
  hYAK3 kinase enzyme inhibition activity: activity similar to Compound B (described herein) and Compound C
[1]; compared with the most closely related compounds of PCT/US2003/037658
  bioavailability in vivo: significantly greater bioavailability in vivo

## O=C1NC(=Nc2ccccc2Cl)S/C1=C\c1ccc2nccnc2c1 [C•Na, 2-(2-chloro-phenylimino)-5-(quinoxalin-6-ylmethylene)-thiazolidin-4-one sodium salt, reference compound]
[1]
  Oral DNAUC rats (Sprague-Dawley): 0.34 ug · h/mL/min/kg

From US20080194466A1, “(5Z)-5-(6-Quinoxalinylmethylidene)-2-[(2,4,6-Trichlorophenyl)Amino]-1,3-Thiazol-4(5H)-One” (priority 2005, published 2008)
